Experiments:
MDA-MB-231 cells [1] = assay: MTT assay, inhibition of proliferation of MDA-MB-231 cells; type: cell-based, human; conditions: Homo sapiens, MTT reduction, 24 h
Protocol: The synthesized compounds given in Table 1 were tested for their activity in inhibiting the proliferation of MDA-MB-231 cells.
• 1. Cell culture and cell treatment: Breast cancer MDA-MB-231 cells were maintained in monolayers at 37° C. in DMEM containing penicillin and streptomycin, L-glutamine and 10% fetal bovine serum in an atmosphere of 95% air and 5% CO2. Cells were seeded into multi-well plates at 5×10^4 cells/mL; media was replaced 24 h later with fresh serum-free DMEM containing one of the test compounds in DMSO. DMSO was added to control cells at a final concentration of 0.1%. • 2. MTT assay: MDA-MB-231 cells were seeded in 96 well plates (0.2 mL/well), treated with compounds at 0.01, 0.1, 0.5, 1, 5 and 10 μM for 24 h. MTT (25 μL of 2.5 mg/mL solution) was added to each well for 2 h, after which MTT and media were removed. The blue formazan product formed from MTT by live cells was dissolved in DMSO (100 μL/well) and quantified spectrophotometrically at 540 nm in a multilabel counter. IC50s were calculated using GraphPad Prism (Prism 5.01). • 3. Caspase 3 activity: MDA-MB-231 cells were seeded in 96 well plates (0.2 mL/well), and were treated with compounds at 0.1, 0.5 and 1 μM for 24 h. Caspase 3 activity was quantified using the Caspase-Glo 3/7 assay kit according to manufacturer's protocol (Promega). Briefly, after 24 h treatment, fresh serum-free media was added to wells. Cells were equilibrated at room temperature for 30 min, caspase 3/7 substrate in lysis buffer was added and the luminescence was measured. Relative caspase 3/7 activity was calculated as [(luminescence in treatment−luminescence in control)/luminescence in control×100%]. • 4. Annexin V assay: MDA-MB-231 cells were seeded in 6 well plates (3 mL/well), and were treated with compounds at 0.1, 0.5 and 1 μM for 24 h. The apoptotic cells were quantified by Annexin V staining according to the manufacture's protocol (BD Biosciences). Briefly, after 24 h treatment, the media and harvested cells were collected, followed by PBS washes. Cells were stained with Annexin V and PI in binding buffer for 15 min at room temperature and quantified by flow cytometry (BD Biosciences). The apoptotic cells (%) were calculated as [(Annexin V positive cells in treatment−Annexin V positive cells in control)/Annexin V positive cells in control×100%]. • 5. Matrigel assay: MDA-MB-231 cells were trypsinized and resuspended in serum-free DMEM media (3.5×10^6 cells/mL). The cell suspension was mixed 1:1 with Matrigel solution (Bio Scientific). Aliquots (20 μL containing 3.5×10^4 cells) were placed into 6-well tissue-culture dishes to form well-defined droplets and incubated at 37° C. for 5 min to enable semi-solidification. Migration media was freshly made as DMEM containing 20% fetal bovine serum, epidermal growth factor 10 pg/mL, hydrocortisone 0.4 ng/mL, vascular endothelial growth factor (VEGF, 1 pg/mL), basic fibroblast growth factor (bFGF, 20 pg/mL), insulin-like growth factor-1 (40 pg/mL), ascorbic acid (2 ng/mL) and heparin (45 ng/mL). Compounds were added in migration media (3 mL/well) and plates were then incubated for 24 h. Cells that migrated out of droplets were scored using phase-contrast microscopy and digital image analysis (Olympus). • 6. Real-time RT PCR: Cell droplets from migration assays were collected, and total RNA was extracted using Tri Reagent (Astral Scientific) according to the manufacturer's protocol. RNA samples were treated with DNase (Promega) and gene expression was quantified using an Express Onestep Superscript qRT-PCT kit (Invitrogen) and gene-specific primers: heparanase (forward) […] and (reverse) GCAGCAACTTTGGCATTTC, integrin-α3 (forward) […] and (reverse) […], actin (forward) […] and (reverse) […]. The cycling conditions (Roto-Gene™ 6000; Corbett Research) were as follows: 95° C. (15 min); 40 cycles of denaturation (95° C., 30 s); annealing (60° C., 1 min); elongation (72° C., 1 min). […]

[2] = tested on: human MDA-MB-231 breast cancer cell xenografts; assay: In vivo dose-response study of compound 29, MDA-MB-231 xenografts in nude mice; conditions: for mouse body weight gain or loss: FIG. 7
Protocol: One of the synthesised compounds given in Table 1 (compound 29, reproduced below) was the subject of an in vivo dose-response study in nude mice with human MDA-MB-231 breast cancer cell xenografts. One group received compound 15 in parallel.
nu/nu Balb/c; Age: 6 weeks at commencement of study; Gender: female
control, compound 29 (2.5 mg/kg), compound 29 (10 mg/kg), compound 29 (40 mg/kg) and compound 15 (10 mg/kg); 5 mice/group
human MDA-MB-231 cells, 4×10^5 cells/100 μl (Matrigel:PBS 1:1)/mouse, subcutaneous injection into the 4th mammary fat pad.
after 4 days animals received compound 29 at 40, 10 and 2.5 mg/kg doses (in corn oil, Sigma, and 8% DMSO), or compound 15 at 10 mg/kg in corn oil at 4% DMSO, 6 days each week, for 38 days. Control: 8% DMSO in corn oil.
weighed six days a week; tumour sizes measured with calipers every 3 to 4 days.

MDA-MB-231 cells [3] = assay: Proapoptotic activity in MDA-MB-231 cells (JC-1 staining, confluence); type: cell-based, human
Protocol: Several of the compounds were tested for the capacity to induce apoptosis in MDA-MB-231 cells (10 μM, 24 hr treatments). […] In view of the finding with compound 29 a concentration-relationship was developed with caspase-3/7 activity (an established marker of apoptosis) as the endpoint (FIG. 11).

MDA-MB-468 cells = assay: MTT reduction in MDA-MB-468 cells; type: cell-based; conditions: compared with MDA-MB-231
MCF-7 cells = assay: MTT reduction in MCF-7 cells; type: cell-based; conditions: compared with MDA-MB-231
Protocol: These are also breast cancer cell lines, but are less aggressive than the MDA-MD-231 cells.
(§1) • 1. Cell culture and cell treatment: Breast cancer MDA-MB-231 cells were maintained in monolayers at 37° C. in DMEM containing penicillin and streptomycin, L-glutamine and 10% fetal bovine serum in an atmosphere of 95% air and 5% CO2. Cells were seeded into multi-well plates at 5×10^4 cells/mL; media was replaced 24 h later with fresh serum-free DMEM containing one of the test compounds in DMSO. DMSO was added to control cells at a final concentration of 0.1%. • 2. MTT assay: MDA-MB-231 cells were seeded in 96 well plates (0.2 mL/well), treated with compounds at 0.01, 0.1, 0.5, 1, 5 and 10 μM for 24 h. […] The blue formazan product formed from MTT by live cells was dissolved in DMSO (100 μL/well) and quantified spectrophotometrically at 540 nm in a multilabel counter. IC50s were calculated using GraphPad Prism (Prism 5.01). • 3. […] Caspase 3 activity was quantified using the Caspase-Glo 3/7 assay kit according to manufacturer's protocol (Promega). […] Cells were equilibrated at room temperature for 30 min, caspase 3/7 substrate in lysis buffer was added and the luminescence was measured. Relative caspase 3/7 activity was calculated as [(luminescence in treatment−luminescence in control)/luminescence in control×100%]. • 4. […]

MDA-MB-231 cells [4] = assay: Matrigel assay, migration of MDA-MB-231 cells out of matrigel droplets; type: cell-based, human
Protocol: This supports the finding that these compounds are effective against metastatic cancer cells.
as §1

MDA-MB-231 cells [5] = assay: Caspase 3 activity (Caspase-Glo 3/7) in MDA-MB-231 cells; type: cell-based, human; conditions: 0.1 μM, FIG. 1
Protocol: (§2) • 1. Cell culture and cell treatment: Breast cancer MDA-MB-231 cells were maintained in monolayers at 37° C. in DMEM containing penicillin and streptomycin, L-glutamine and 10% fetal bovine serum in an atmosphere of 95% air and 5% CO2. Cells were seeded into multi-well plates at 5×10^4 cells/mL; media was replaced 24 h later with fresh serum-free DMEM containing one of the test compounds in DMSO. DMSO was added to control cells at a final concentration of 0.1%. • 2. MTT assay: MDA-MB-231 cells were seeded in 96 well plates (0.2 mL/well), treated with compounds at 0.01, 0.1, 0.5, 1, 5 and 10 μM for 24 h. […] The blue formazan product formed from MTT by live cells was dissolved in DMSO (100 μL/well) and quantified spectrophotometrically at 540 nm in a multilabel counter. IC50s were calculated using GraphPad Prism (Prism 5.01). • 3. […] Caspase 3 activity was quantified using the Caspase-Glo 3/7 assay kit according to manufacturer's protocol (Promega). […] Cells were equilibrated at room temperature for 30 min, caspase 3/7 substrate in lysis buffer was added and the luminescence was measured. Relative caspase 3/7 activity was calculated as [(luminescence in treatment−luminescence in control)/luminescence in control×100%]. • 4. […] The apoptotic cells were quantified by Annexin V staining according to the manufacture's protocol (BD Biosciences). […]

MDA-MB-231 cells [6] = assay: Annexin V assay (apoptotic cells) in MDA-MB-231 cells; type: cell-based, human; conditions: FIG. 2
Protocol: as §2

Row | SMILES | IC50 (MDA-MB-231 cells [1]) | tumour growth rate and volume at later time points (after day 25) ([2]; 2.5 mg/kg, FIG. 9) | tumour growth ([2]; 10 mg/kg, FIG. 9) | tumour weights versus control and 2.5 mg/kg groups ([2]; 40 mg/kg, day 38) | tumour volumes versus control and 2.5 mg/kg groups ([2]; 40 mg/kg, day 38, FIG. 9) | toxicity of the treatment (growth rates) ([2]; all dose groups, 38 days) | mouse body weight gain or loss ([2]; compound 29 2.5 mg/kg, 38 days) | mouse body weight gain or loss ([2]; compound 29 10 mg/kg, 38 days) | mouse body weight gain or loss ([2]; compound 29 40 mg/kg, 38 days) | tumour foci in the peritoneal cavity ([2]; compound 29-treated mice (2.5, 10, 40 mg/kg), 38 days) | JC-1 staining (mitochondrial damage) (MDA-MB-231 cells [3]; 10 μM, 24 hr, FIG. 10) | confluence of treated cells (MDA-MB-231 cells [3]; FIG. 12) | inhibition of MTT reduction (MDA-MB-468 cells) | inhibition of MTT reduction (MCF-7 cells) | migration of cells in the matrigel assay (MDA-MB-231 cells [4]; 10 μM) | caspase-3 activity (MDA-MB-231 cells [5]) | Annexin V staining (early apoptosis) (MDA-MB-231 cells [6]) | IC50 (MDA-MB-231 cells [4]; Homo sapiens, MDA-MB-231, matrigel assay, read-out: IC50 (concentration at which migration is inhibited to 50% of control))
1 | O=C(O)CCCCCCCCCCCCCCCNC(=O)Nc1ccc(Cl)c(C(F)(F)F)c1 [Compound 29, 16-({[4-chloro-3-(trifluoromethyl)phenyl]carbamoyl)amino}hexadecanoic acid] | 1100 nM | larger than the compound 29 (40 mg/kg) group | decreased from day 32 | significantly smaller | significantly smaller | non-toxic | gained weight at a steady and similar rate | gained weight at a steady and similar rate | gained weight at a steady and similar rate | No tumour foci were seen | Increased JC-1 staining | decreased confluence |  |  |  |  |  | 
2 | CCNC(=O)NCCCCCCCCCCCCCCCC(=O)O [Compound 19, 16-[(ethylcarbamoyl)amino]hexadecanoic acid] | 1800 nM |  |  |  |  |  |  |  |  |  |  |  | inhibited MTT reduction | inhibited MTT reduction | 61±5 % of control |  |  | 
3 | Cc1ccc(NC(=O)NCCCCCCCCCCCCCCCC(=O)O)cc1 [Compound 16, 16-{[(4-methylphenyl)carbamoyl]amino}hexadecanoic acid] | 750 nM |  |  |  |  |  |  |  |  |  |  |  |  |  |  | particularly good | increases this substantially | 3800 nM
